This is an account of results in US10624345B2, “Protoporphyrinogen oxidase inhibitor mixtures” (Valent U.S.A. LLC, priority 2017, dated 2020).

For one series, the system named is soybeans. As to the kind of experiment: Field trial, crop phytotoxicity, soybeans. Format: in vivo. The following applies: compared with the other adjuvant; in words. As for the experimental part: (§1) A field trial was conducted in Mississippi, United States, to evaluate the impact of the C16 to C18 fatty acid methyl esters adjuvant system on the effectiveness of several herbicides. Rice, soybeans, cotton, peanut and corn seeds were planted and irrigated on two days after planting. Seven days after planting there was good stand of all of the crops, except only 4 of the 9 rows of rice were visible. The weeds were about 3 centimeters tall at this time. The treatments in Table 2 below were applied 13 days after planting. The rate of each treatment is below in Table 2 and all of the adjuvant systems were mixed with the herbicides at a rate of 1% v/v.
(§2) At the time of treatment: rice was at the first true leaf growth stage and from about 5 to 7 inches tall; soybeans were at the V2 growth stage and from about 5 to 7 inches tall; cotton was at the V2 growth stage and from about 5 to 7 inches tall; peanut was at the V5 growth stage and from about 3 to 5 inches tall; and corn was at the V3 growth stage and from about 9 to 12 inches tall.
(§3) The adjuvant system described in Example 1 above was used as the source of the C16 to C18 fatty acid methyl esters adjuvant system used in this study.
(§4) In this study, phytotoxicity of the crops was also evaluated.

A further series relates to Broadleaf Signalgrass. The series is described as follows: Field trial, post-emergence weed control, Broadleaf Signalgrass. It counts as in vivo, Brachiaria platyhylla. The following applies: compared with the other adjuvant; in words. Here is the method: as §1
(§5) At the time of treatment: Hemp Sesbania was at the V4 growth stage and from about 3 to 5 about inches tall; Ivyleaf Morningglory was at the V3 growth stage and from about 2 to about 4 inches tall; Common Barnyardgrass was at the V5 growth stage and from about 2.5 to about 6 inches tall; Palmer Amaranth was at the vegetative growth stage and from about 2 to about 7 inches tall; Yellow Nutsedge was at the V8 growth stage and from about 3 to about 6 inches tall; and Broadleaf Signalgrass was at the second true leaf growth stage and from about 2 to about 4 inches tall.
(§6) The weeds were evaluated fourteen days after treatment. […]

A further series relates to rice. As to the kind of experiment: Field trial, crop phytotoxicity, rice. Format: in vivo. The following applies: compared with the other adjuvant; in words. As for the experimental part:
as §1, §2, §3, §4

A further series deals with corn. The series is described as follows: Field trial, crop phytotoxicity, corn. It counts as in vivo. The following applies: compared with the other adjuvant; in words. Here is the method: as §1, §2, §3, §4
In the next series the test system is Palmer Amaranth. As to the kind of experiment: Field trial, post-emergence weed control, Palmer Amaranth. It counts as in vivo. The following applies: compared with the other adjuvant; in words. As for the experimental part:
as §1, §5, §6

The test system of a further series is cotton. The series is described as follows: Field trial, crop phytotoxicity, cotton. Format: in vivo. The conditions noted are these: compared with the other adjuvant; in words. As for the experimental part:
as §1, §2, §3, §4

The next series concerns Hemp Sesbania. The series is described as follows: Field trial, post-emergence weed control, Hemp Sesbania. Format: in vivo. The following applies: compared with the other adjuvant; in words. As for the experimental part: as §1, §5, §6
A further series concerns Yellow Nutsedge. The series is described as follows: Field trial, post-emergence weed control, Yellow Nutsedge. It counts as in vivo, Cyperus esculentus. The conditions noted are these: compared with the other adjuvant; in words. Here is the method: as §1, §5, §6
For the next series, the system named is Common Barnyardgrass. The series is described as follows: Field trial, post-emergence weed control, Common Barnyardgrass. It counts as in vivo, Echinochloa crus-galli. The conditions noted are these: compared with the other adjuvant; in words. As for the experimental part:
as §1, §5, §6

The next series has as its system Ivyleaf Morningglory. The series is described as follows: Field trial, post-emergence weed control, Ivyleaf Morningglory. Format: in vivo. The following applies: compared with the other adjuvant; in words. As for the experimental part: as §1, §5, §6
For the next series, the system named is peanut. The series is described as follows: Field trial, crop phytotoxicity, peanut. Format: in vivo. The following applies: compared with the other adjuvant; in words. As for the experimental part: as §1, §2, §3, §4
For a further series, the system named is weeds. As to the kind of experiment: Field trial, impact of the adjuvant system on herbicide effectiveness, weeds overall. Format: in vivo. The following applies: compared with the other adjuvant; no weed named; in words. As for the experimental part:
as §1, §5
The weeds were evaluated fourteen days after treatment.
as §3

Structures are written as SMILES. Entries after “also recorded” stand apart in the source; their conditions may differ.

Turning to `CCOC(=O)COc1ncccc1Oc1cc(-n2c(=O)cc(C(F)(F)F)n(C)c2=O)c(F)cc1Cl` [ethyl [3-[2-chloro-4-fluoro-5-(1-methyl-6-trifluoromethyl-2,4-dioxo-1,2,3,4-tetrahydropyrimidin-3-yl)phenoxy]-2-pyridyloxy]acetate], the “Effect of C16 to C18 fatty acid methyl esters adjuvant system on phytotoxicity on soybeans” value with soybeans is given as “did not significantly increase phytotoxicity”. In the series on Broadleaf Signalgrass, the “Effect of C16 to C18 fatty acid methyl esters adjuvant system on effectiveness on Broadleaf Signalgrass” value is on record as “increases the effectiveness”. Also, the “Effect of C16 to C18 fatty acid methyl esters adjuvant system on phytotoxicity on rice” value in the series with rice was “increase the phytotoxicity”. The “Effect of C16 to C18 fatty acid methyl esters adjuvant system on phytotoxicity on corn” value in the series on corn is on record as “did not significantly increase phytotoxicity”. Moreover, the “Effect of C16 to C18 fatty acid methyl esters adjuvant system on effectiveness on Palmer Amaranth” value in the series on Palmer Amaranth is on record as “did not increase the effectiveness”. Also, in the series on cotton, the “Effect of C16 to C18 fatty acid methyl esters adjuvant system on phytotoxicity on cotton” value is recorded as “did not significantly increase phytotoxicity”. Also, the “Effect of C16 to C18 fatty acid methyl esters adjuvant system on effectiveness on Hemp Sesbania” value with Hemp Sesbania is “did not increase the effectiveness”. Also, the “Effect of C16 to C18 fatty acid methyl esters adjuvant system on effectiveness on Yellow Nutsedge” value with Yellow Nutsedge was “did not increase the effectiveness”. Further, in the series with Common Barnyardgrass, the “Effect of C16 to C18 fatty acid methyl esters adjuvant system on effectiveness on Common Barnyardgrass” value is reported as “increases the effectiveness”. Further, the “Effect of C16 to C18 fatty acid methyl esters adjuvant system on effectiveness on Ivyleaf Morningglory” value in the series on Ivyleaf Morningglory is “did not increase the effectiveness”. Further, the “Effect of C16 to C18 fatty acid methyl esters adjuvant system on phytotoxicity on peanut” value in the series on peanut is recorded as “increase the phytotoxicity”. In addition, the “Effect of C16 to C18 fatty acid methyl esters adjuvant system on effectiveness/efficacy of the herbicide (weeds overall)” value with weeds was “improved the efficacy”.

With `C#CCN1C(=O)COc2cc(F)c(N3C(=O)C4=C(CCCC4)C3=O)cc21` [flumioxazin], the “Effect of C16 to C18 fatty acid methyl esters adjuvant system on effectiveness/efficacy of the herbicide (weeds overall)” value in the series on weeds is given as “did not improve the efficacy; also recorded: failed to increase the effectiveness”.

As for `CCOC(=O)C(C)OC(=O)c1cc(Oc2ccc(C(F)(F)F)cc2Cl)ccc1[N+](=O)[O-]` (centres unmarked) [lactofen], in the series with weeds, the “Effect of C16 to C18 fatty acid methyl esters adjuvant system on effectiveness/efficacy of the herbicide (weeds overall)” value was “did not improve the efficacy; also recorded: failed to increase the effectiveness”.
